According to ChEMBL document CHEMBL1132889, “Synthesis and evaluation of 9,9-dimethylxanthene tricyclics against trypanothione reductase, Trypanosoma brucei, Trypanosoma cruzi and Leishmania donovani” (2000):
≈ marks a conversion by molar mass, not a printed value.

How the values were obtained:
Leishmania donovani [1] = experiment: The compound was evaluated in vitro for its inhibitory affect against Leishmania donovani; type: functional; conditions: read-out: ED50 (the source's name)
[2] = Cytotoxicity against peritoneal macrophages of female CD1 mice culturing amastigote stages of Leishmania donovani; type: functional; conditions: Mus musculus
[3] = Cytotoxicity against peritoneal macrophages of female CD1 mice culturing amastigote stages of Trypanosoma cruzi; type: functional; conditions: Mus musculus
Trypanosoma cruzi [4] = experiment: The compound was evaluated in vitro for its inhibitory affect against Trypanosoma cruzi; type: functional; conditions: read-out: ED50 (the source's name)
Trypanosoma brucei [5] = experiment: The compound was evaluated in vitro for its inhibitory affect against Trypanosoma brucei; (0.098 mM Sb); type: functional; conditions: read-out: ED50 (the source's name)
[6] = target: Trypanothione reductase (Trypanosoma cruzi) (UniProt P28593); experiment: The compound was evaluated in vitro for its inhibitory affect against trypanothione reductase; design: concentration or dose not given beside the values; conditions: concentration not given here
Trypanosoma brucei [7] = experiment: The compound was evaluated in vitro for its inhibitory affect against Trypanosoma brucei; (7.58 mM Sb); type: functional; conditions: read-out: ED50 (the source's name)
Leishmania donovani [8] = experiment: The compound was evaluated in vitro for its inhibitory affect against Leishmania donovani; (0.55 mM Sb); type: functional; conditions: read-out: ED50 (the source's name)
Trypanosoma cruzi [9] = experiment: The compound was evaluated in vitro for its inhibitory affect against Trypanosoma cruzi; (0.48 mM Sb); type: functional; conditions: read-out: ED50 (the source's name)
Trypanosoma brucei [10] = experiment: The compound was evaluated in vitro for its inhibitory affect against Trypanosoma brucei; (0.02 mM Sb); type: functional; conditions: read-out: ED50 (the source's name)
Trypanosoma brucei [11] = experiment: The compound was evaluated in vitro for its inhibitory affect against Trypanosoma brucei; (0.14 mM Sb); type: functional; conditions: read-out: ED50 (the source's name)
Trypanosoma brucei [12] = experiment: The compound was evaluated in vitro for its inhibitory affect against Trypanosoma brucei; (0.03 mM Sb); type: functional; conditions: read-out: ED50 (the source's name)
Trypanosoma brucei [13] = experiment: The compound was evaluated in vitro for its inhibitory affect against Trypanosoma brucei; (9.66 mM Sb); type: functional; conditions: read-out: ED50 (the source's name)
Leishmania donovani [14] = experiment: The compound was evaluated in vitro for its inhibitory affect against Leishmania donovani; (32.6 mM Sb); type: functional; conditions: read-out: ED50 (the source's name)
Trypanosoma brucei [15] = experiment: The compound was evaluated in vitro for its inhibitory affect against Trypanosoma brucei; (8.24 mM Sb); type: functional; conditions: read-out: ED50 (the source's name)
Trypanosoma cruzi [16] = experiment: In vitro inhibitory affect against Trypanosoma cruzi; (32.7 mM Sb); type: functional; conditions: read-out: ED50 (the source's name)

Sequence of Trypanothione reductase (Trypanosoma cruzi) (P28593 whole entry, looked up): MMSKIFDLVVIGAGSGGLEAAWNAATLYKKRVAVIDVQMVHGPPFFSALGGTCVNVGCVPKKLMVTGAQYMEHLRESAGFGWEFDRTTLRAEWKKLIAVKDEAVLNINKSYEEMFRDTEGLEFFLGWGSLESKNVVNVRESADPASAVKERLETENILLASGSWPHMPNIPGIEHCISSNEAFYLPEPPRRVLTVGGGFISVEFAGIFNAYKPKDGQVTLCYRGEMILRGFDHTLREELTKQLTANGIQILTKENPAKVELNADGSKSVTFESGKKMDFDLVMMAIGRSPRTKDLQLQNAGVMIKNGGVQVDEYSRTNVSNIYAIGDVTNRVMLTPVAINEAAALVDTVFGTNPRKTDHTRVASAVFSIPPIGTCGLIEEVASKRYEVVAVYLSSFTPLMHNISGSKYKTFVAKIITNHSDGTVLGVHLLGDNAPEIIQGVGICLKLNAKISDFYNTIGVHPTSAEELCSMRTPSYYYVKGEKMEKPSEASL

| SMILES | EC50 (Leishmania donovani [1]) | MIC [2] | MIC [3] | EC50 (Trypanosoma cruzi [4]) | inhibition [6] | further results |
| --- | --- | --- | --- | --- | --- | --- |
| CN(C)CCC/N=C(\S)NCCCc1cccc2c1Oc1c(CCCN/C(S)=N/CCCN(C)C)cccc1C2(C)C | > 30 µg/mL | > 30 µg/mL | > 30 µg/mL | > 30 µg/mL | 52% | EC50 (Trypanosoma brucei [5]): 0.06 µg/mL (≈ 0.0979 µM) |
| CN(C)CCCNCc1cccc2c1Oc1c(CNCCCN(C)C)cccc1C2(C)C | > 30 µg/mL | > 300 µg/mL | > 300 µg/mL | > 30 µg/mL | 13.8% | EC50 (Trypanosoma brucei [7]): 3.32 µg/mL (≈ 7.57 µM) |
| CN(C)CCCNC(=O)c1cc(C(C)(C)C)cc2c1Oc1c(C(=O)NCCCN(C)C)cc(C(C)(C)C)cc1C2(C)C |  | > 30 µg/mL | > 30 µg/mL |  | 28.4% | EC50 (Leishmania donovani [8]): 0.32 µg/mL (≈ 0.553 µM); EC50 (Trypanosoma cruzi [9]): 0.28 µg/mL (≈ 0.484 µM); EC50 (Trypanosoma brucei [10]): 0.01 µg/mL (≈ 0.0173 µM) |
| CN(C)CCCNCCCc1cccc2c1Oc1c(CCCNCCCN(C)C)cccc1C2(C)C | > 30 µg/mL | > 30 µg/mL | > 30 µg/mL | > 30 µg/mL | 63% | EC50 (Trypanosoma brucei [11]): 0.07 µg/mL (≈ 0.141 µM) |
| N=C(N)c1ccc(OCCCCCOc2ccc(C(=N)N)cc2)cc1 [PENTAMIDINE] |  |  |  |  |  | EC50 (Trypanosoma brucei [12]): 0.01 µg/mL (≈ 0.0294 µM) |
| CN(C)CCCNC(=O)c1cccc2c1Oc1c(C(=O)NCCCN(C)C)cccc1C2(C)C | > 30 µg/mL | > 300 µg/mL | > 300 µg/mL | > 30 µg/mL | 40% | EC50 (Trypanosoma brucei [13]): 4.5 µg/mL (≈ 9.64 µM) |
| CN(C)CCCNC(=O)CCc1cccc2c1Oc1c(CCC(=O)NCCCN(C)C)cccc1C2(C)C |  | > 300 µg/mL | > 300 µg/mL | > 30 µg/mL | 58% | EC50 (Leishmania donovani [14]): 17 µg/mL (≈ 32.6 µM); EC50 (Trypanosoma brucei [15]): 4.3 µg/mL (≈ 8.23 µM) |
| O=C(Cn1ccnc1[N+](=O)[O-])NCc1ccccc1 [BENZNIDAZOLE] |  |  |  |  |  | EC50 (Trypanosoma cruzi [16]): 8.5 µg/mL (≈ 32.7 µM) |
